The text below walks through data of ChEMBL document CHEMBL5620355, “Discovery of intracellular self-assembly protein degraders driven by tumor-specific activatable bioorthogonal reaction” (Eur J Med Chem, 2023).

The source made the active and inactive calls. No cut-off for these calls is given here.

As usually defined, the IC50 is the concentration needed to halve the response being measured.

Data set [1] concerns U-87 MG. Kind of data set: Antiproliferative activity against human U87 cells incubated for 48 hrs in presence of 4-(4-(3-(4-chloro-3-(trifluoromethyl)phenyl)ureido)phenoxy)-N-(prop-2-yn-1-yl)picolinamide by MTT assay. It is filed as functional, cell-based, U-87MG ATCC. In general terms: Formazan colour is commonly taken as a measure of viable cells.
For data set [2], the system named is HEK293. In words: Cytotoxicity against HEK293 cells at high concentration incubated for 48 hrs in presence of 4-(4-(3-(4-chloro-3-(trifluoromethyl)phenyl)ureido)phenoxy)-N-(prop-2-yn-1-yl)picolinamide by MTT assay. The note with it: human, hek293, 48 h. The format is toxicity, cell-based.
Data set [3] addresses Vascular endothelial growth factor receptor 2 (Homo sapiens) (UniProt P35968). Kind of data set: Induction of VEGFR2 degradation in human U87 cells at 10 uM incubated for 48 hrs by Western blot analysis. The format is cell-based.
Data set [4] concerns the target Platelet-derived growth factor receptor beta (Homo sapiens) (UniProt P09619). In words: Induction of PDGFR-beta degradation in human U87 cells at 10 uM incubated for 48 hrs by Western blot analysis. The format is cell-based. (In general: In western blotting, separated proteins are transferred to a membrane and probed.)
The subject of data set [5] is U-87 MG. In words: Induction of apoptosis in human U87 cells assessed as viable cells at 0.1 uM incubated for 48 hrs in presence of 4-(4-(3-(4-chloro-3-(trifluoromethyl)phenyl)ureido)phenoxy)-N-(prop-2-yn-1-yl)picolinamide by Annexin V-FLTC/PI staining based flow cytometry (reference value: 86.74 %). The format is functional, U-87MG ATCC. The settings on record: read-out: Activity. A general note: A flow cytometer gives signals particle by particle.

Data set [6] relates to U-87 MG. In words: Induction of apoptosis in human U87 cells assessed as early apoptotic cells at 1 uM incubated for 48 hrs in presence of 4-(4-(3-(4-chloro-3-(trifluoromethyl)phenyl)ureido)phenoxy)-N-(prop-2-yn-1-yl)picolinamide by Annexin V-FLTC/PI staining based flow cytometry (reference value: 8.95 %). It is filed as functional, U-87MG ATCC.
Data set [7] relates to U-87 MG. Kind of data set: Induction of apoptosis in human U87 cells assessed as late apoptotic cells at 1 uM incubated for 48 hrs in presence of 4-(4-(3-(4-chloro-3-(trifluoromethyl)phenyl)ureido)phenoxy)-N-(prop-2-yn-1-yl)picolinamide by Annexin V-FLTC/PI staining based flow cytometry (reference value: 3.71 %). The format is functional, U-87MG ATCC.
Data set [8] deals with U-87 MG. Kind of data set: Induction of apoptosis in human U87 cells assessed as early apoptotic cells at 5 uM incubated for 48 hrs in presence of 4-(4-(3-(4-chloro-3-(trifluoromethyl)phenyl)ureido)phenoxy)-N-(prop-2-yn-1-yl)picolinamide by Annexin V-FLTC/PI staining based flow cytometry (reference value: 8.95 %). It is filed as functional, U-87MG ATCC.
In data set [9] the test system is U-87 MG. Kind of data set: Induction of apoptosis in human U87 cells assessed as early apoptotic cells at 10 uM incubated for 48 hrs in presence of 4-(4-(3-(4-chloro-3-(trifluoromethyl)phenyl)ureido)phenoxy)-N-(prop-2-yn-1-yl)picolinamide by Annexin V-FLTC/PI staining based flow cytometry (reference value: 8.95 %). The format is functional, U-87MG ATCC.
Data set [10] concerns U-87 MG. In words: Induction of apoptosis in human U87 cells assessed as viable cells at 20 uM incubated for 48 hrs in presence of 4-(4-(3-(4-chloro-3-(trifluoromethyl)phenyl)ureido)phenoxy)-N-(prop-2-yn-1-yl)picolinamide by Annexin V-FLTC/PI staining based flow cytometry (reference value: 86.74 %). It is filed as functional, U-87MG ATCC. The settings on record: read-out: Activity.

For data set [11], the system named is U-87 MG. Kind of data set: Antiproliferative activity against human U87 cells incubated for 48 hrs in presence of 4-azido-N-(2-(2,6-dioxopiperidin-3-yl)-1,3-dioxoisoindolin-4-yl)butanamide by MTT assay. It is filed as functional, cell-based, U-87MG ATCC.
Data set [12] deals with HEK293. Kind of data set: Cytotoxicity against HEK293 cells at low concentration incubated for 48 hrs in presence of 4-azido-N-(2-(2,6-dioxopiperidin-3-yl)-1,3-dioxoisoindolin-4-yl)butanamide by MTT assay. The format is toxicity, cell-based. The settings on record: human, hek293, 48 h.
In data set [13] the test system is U-87 MG. Kind of data set: Induction of apoptosis in human U87 cells assessed as viable cells at 0.1 uM incubated for 48 hrs in presence of (2S,4R)-1-((S)-2-(5-azidopentanamido)-3,3-dimethylbutanoyl)-4-hydroxy-N-(4-(4-methylthiazol-5-yl)benzyl)pyrrolidine-2-carboxamide by Annexin V-FLTC/PI staining based flow cytometry (reference value: 86.74 %). It is filed as functional, U-87MG ATCC. The note with it: read-out: Activity.

Data set [14] relates to U-87 MG. In words: Induction of apoptosis in human U87 cells assessed as late apoptotic cells at 5 uM incubated for 48 hrs in presence of (2S,4R)-1-((S)-2-(5-azidopentanamido)-3,3-dimethylbutanoyl)-4-hydroxy-N-(4-(4-methylthiazol-5-yl)benzyl)pyrrolidine-2-carboxamide by Annexin V-FLTC/PI staining based flow cytometry (reference value: 3.71 %). The format is functional, U-87MG ATCC.

Data set [15] relates to U-87 MG. Kind of data set: Induction of apoptosis in human U87 cells assessed as viable cells at 10 uM incubated for 48 hrs in presence of (2S,4R)-1-((S)-2-(5-azidopentanamido)-3,3-dimethylbutanoyl)-4-hydroxy-N-(4-(4-methylthiazol-5-yl)benzyl)pyrrolidine-2-carboxamide by Annexin V-FLTC/PI staining based flow cytometry (reference value: 86.74 %). The format is functional, U-87MG ATCC. The note with it: read-out: Activity.

In data set [16] the test system is U-87 MG. In words: Induction of apoptosis in human U87 cells assessed as early apoptotic cells at 10 uM incubated for 48 hrs in presence of (2S,4R)-1-((S)-2-(5-azidopentanamido)-3,3-dimethylbutanoyl)-4-hydroxy-N-(4-(4-methylthiazol-5-yl)benzyl)pyrrolidine-2-carboxamide by Annexin V-FLTC/PI staining based flow cytometry (reference value: 8.95 %). The format is functional, U-87MG ATCC.

Data set [17] deals with U-87 MG. In words: Induction of apoptosis in human U87 cells assessed as late apoptotic cells at 10 uM incubated for 48 hrs in presence of (2S,4R)-1-((S)-2-(5-azidopentanamido)-3,3-dimethylbutanoyl)-4-hydroxy-N-(4-(4-methylthiazol-5-yl)benzyl)pyrrolidine-2-carboxamide by Annexin V-FLTC/PI staining based flow cytometry (reference value: 3.71 %). It is filed as functional, U-87MG ATCC.

Data set [18] relates to U-87 MG. In words: Induction of apoptosis in human U87 cells assessed as viable cells at 20 uM incubated for 48 hrs in presence of (2S,4R)-1-((S)-2-(5-azidopentanamido)-3,3-dimethylbutanoyl)-4-hydroxy-N-(4-(4-methylthiazol-5-yl)benzyl)pyrrolidine-2-carboxamide by Annexin V-FLTC/PI staining based flow cytometry (reference value: 86.74 %). It is filed as functional, U-87MG ATCC. The note with it: read-out: Activity.

The test system of data set [19] is U-87 MG. Kind of data set: Induction of apoptosis in human U87 cells assessed as necrotic cells at 20 uM incubated for 48 hrs in presence of (2S,4R)-1-((S)-2-(5-azidopentanamido)-3,3-dimethylbutanoyl)-4-hydroxy-N-(4-(4-methylthiazol-5-yl)benzyl)pyrrolidine-2-carboxamide by Annexin V-FLTC/PI staining based flow cytometry (reference value: 0.60 %). The format is functional, U-87MG ATCC.

Chain of Vascular endothelial growth factor receptor 2 (Homo sapiens) (P35968 whole entry): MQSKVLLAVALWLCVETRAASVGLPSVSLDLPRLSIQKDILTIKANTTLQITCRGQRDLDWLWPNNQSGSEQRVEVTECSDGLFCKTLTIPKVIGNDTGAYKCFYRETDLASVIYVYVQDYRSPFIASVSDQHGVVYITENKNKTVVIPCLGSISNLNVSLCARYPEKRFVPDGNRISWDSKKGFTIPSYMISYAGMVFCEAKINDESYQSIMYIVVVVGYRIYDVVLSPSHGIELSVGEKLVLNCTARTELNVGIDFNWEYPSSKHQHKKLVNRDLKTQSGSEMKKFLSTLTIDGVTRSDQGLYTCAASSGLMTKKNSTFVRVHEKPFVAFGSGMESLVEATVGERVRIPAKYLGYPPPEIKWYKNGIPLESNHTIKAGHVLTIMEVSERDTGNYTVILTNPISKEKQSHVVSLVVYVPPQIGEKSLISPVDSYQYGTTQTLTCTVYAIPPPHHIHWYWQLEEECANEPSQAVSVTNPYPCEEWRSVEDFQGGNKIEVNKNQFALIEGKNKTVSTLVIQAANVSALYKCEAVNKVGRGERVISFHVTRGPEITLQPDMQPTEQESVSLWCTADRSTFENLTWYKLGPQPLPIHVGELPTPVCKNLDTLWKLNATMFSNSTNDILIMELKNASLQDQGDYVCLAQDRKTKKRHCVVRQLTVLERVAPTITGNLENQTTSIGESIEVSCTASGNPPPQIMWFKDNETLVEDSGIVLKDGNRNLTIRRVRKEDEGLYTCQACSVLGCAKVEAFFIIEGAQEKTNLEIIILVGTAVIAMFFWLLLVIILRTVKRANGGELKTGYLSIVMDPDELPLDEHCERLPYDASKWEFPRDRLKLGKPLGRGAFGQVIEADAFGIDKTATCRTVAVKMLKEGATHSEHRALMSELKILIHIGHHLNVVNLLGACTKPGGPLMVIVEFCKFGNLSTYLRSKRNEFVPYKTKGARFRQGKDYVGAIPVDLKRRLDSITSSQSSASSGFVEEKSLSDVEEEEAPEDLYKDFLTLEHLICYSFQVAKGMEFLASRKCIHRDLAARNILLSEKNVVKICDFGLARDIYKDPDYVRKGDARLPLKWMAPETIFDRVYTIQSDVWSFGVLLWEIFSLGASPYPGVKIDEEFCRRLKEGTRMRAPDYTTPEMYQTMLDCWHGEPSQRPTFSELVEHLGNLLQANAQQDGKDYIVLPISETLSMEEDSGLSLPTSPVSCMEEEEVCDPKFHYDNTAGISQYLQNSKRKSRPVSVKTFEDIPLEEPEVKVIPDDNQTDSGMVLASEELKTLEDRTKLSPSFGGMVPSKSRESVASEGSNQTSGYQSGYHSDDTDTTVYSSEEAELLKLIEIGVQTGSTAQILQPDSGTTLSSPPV
Chain of Platelet-derived growth factor receptor beta (Homo sapiens) (P09619 whole entry): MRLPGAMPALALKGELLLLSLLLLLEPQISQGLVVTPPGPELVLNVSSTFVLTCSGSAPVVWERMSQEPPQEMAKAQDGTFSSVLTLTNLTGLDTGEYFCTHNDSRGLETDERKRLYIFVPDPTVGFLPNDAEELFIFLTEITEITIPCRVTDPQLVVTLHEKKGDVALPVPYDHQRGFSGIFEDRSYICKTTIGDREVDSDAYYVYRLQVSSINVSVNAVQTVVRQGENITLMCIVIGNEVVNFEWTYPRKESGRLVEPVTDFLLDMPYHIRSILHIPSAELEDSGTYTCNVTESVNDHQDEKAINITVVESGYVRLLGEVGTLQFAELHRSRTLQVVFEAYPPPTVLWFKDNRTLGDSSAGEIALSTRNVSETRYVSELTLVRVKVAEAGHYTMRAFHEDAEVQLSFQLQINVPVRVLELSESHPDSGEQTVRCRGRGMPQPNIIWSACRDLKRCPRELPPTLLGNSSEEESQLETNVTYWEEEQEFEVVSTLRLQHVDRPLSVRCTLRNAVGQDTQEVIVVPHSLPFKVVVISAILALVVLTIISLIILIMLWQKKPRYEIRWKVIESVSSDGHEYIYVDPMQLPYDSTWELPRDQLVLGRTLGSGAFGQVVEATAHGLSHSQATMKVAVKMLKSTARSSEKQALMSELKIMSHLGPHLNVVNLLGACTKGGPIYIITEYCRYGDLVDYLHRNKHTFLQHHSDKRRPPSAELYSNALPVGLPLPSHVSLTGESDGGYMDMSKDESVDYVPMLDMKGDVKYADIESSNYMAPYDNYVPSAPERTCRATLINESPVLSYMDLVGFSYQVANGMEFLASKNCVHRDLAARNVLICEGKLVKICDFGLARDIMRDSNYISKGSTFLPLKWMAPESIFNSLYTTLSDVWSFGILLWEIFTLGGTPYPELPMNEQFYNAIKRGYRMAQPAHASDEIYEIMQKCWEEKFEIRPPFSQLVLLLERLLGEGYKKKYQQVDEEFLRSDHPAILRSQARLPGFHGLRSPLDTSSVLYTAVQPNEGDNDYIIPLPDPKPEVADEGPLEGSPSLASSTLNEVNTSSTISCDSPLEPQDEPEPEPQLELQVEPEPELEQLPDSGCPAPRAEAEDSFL

Take `[N-]=[N+]=NCCCC(=O)Nc1cccc2c1C(=O)N(C1CCC(=O)NC1=O)C2=O` (centres undefined): the IC50 with U-87 MG [1] came to 5.68 µM. For the same compound, the Activity entry in the data set on HEK293 [2] is “Toxic”; in the data set on U-87 MG [6] it was 11.69%; with U-87 MG [7] it was 5.43%; in the data set on U-87 MG [8], 0.05%; with U-87 MG [9], 0.08%. The outcome in [3] and in [4] was Active. In addition, the viability at 0.1 µM with U-87 MG [5] was determined as 85.3%. Also, the viability at 20 µM with U-87 MG [10] stood at 9.88%.

Regarding `C#CCNC(=O)c1cc(Oc2ccc(NC(=O)Nc3ccc(Cl)c(C(F)(F)F)c3)cc2)ccn1`, the IC50 with U-87 MG [11] was determined as 5.68 µM. Moreover, the Activity entry with HEK293 [12] is “Non-Toxic”; in the data set on U-87 MG [14], 73.25%; with U-87 MG [16] it was 0.08%; in the data set on U-87 MG [17], 72.58%; in the data set with U-87 MG [19] it was 6.36%. Further, the viability at 0.1 µM in the data set with U-87 MG [13] worked out at 85.3%. The viability at 10 µM with U-87 MG [15] is 1.74%. Besides, the viability at 20 µM in the data set on U-87 MG [18] stood at 9.88%.
